From article PMC8113213, “Physiologically based kinetic modelling based prediction of in vivo rat and human acetylcholinesterase (AChE) inhibition upon exposure to diazinon” (Archives of Toxicology, 2021)
pIC50: −log10 of the molar value. Where two headings read alike, the source gives them in different places.

Assays:
[1] = molecular target: T1, recombinant human AChE (rhAChE) (Homo sapiens, UniProt P22303); experiment: biochemical
T1 construct: purchased Sigma-Aldrich Co
Procedure: However, since recombinant rat AChE was not commercially available, extracted rat RBC AChE was used. […] The concentration of DTNB was calculated based on the concentration ratio (ATC/DTNB) of 2 (Stern et al. [2014]). […] To initiate the inhibition reaction, 1 µl rhAChE or rat AChE (final concentration 0.6 mU/ml) was added to the incubation. The total incubation volume was 50 µl. After 15 min incubation at 37℃, 150 µl reaction reagents (mixture of ATC at a final concentration of 150 µM and DTNB at a final concentration of 75 µM) were added into each well. The final total volume of each well was 200 µl. Subsequently, the 96-well plate was measured continuously for 10 min at absorbance 412 nm at 37℃ to quantify the remaining AChE activity.
The rhAChE and rat AChE activity were expressed as the remaining AChE activity relative to solvent control (100% activity) and positive control (0% activity) based on Eq. (2):2 AChEactivity\%=A412t10-t0testcompound-A412t10-t0positivecontrol/A412t10-t0solventcontrol-A412t10-t0positivecontrol×100\% , where the A412(t10 − t0)test compound is the change in the absorbance at A412 nm between 0 and 10 min for the test compound, the A412(t10 − t0)positive control is the change in the absorbance at A412 nm between 0 and 10 min for the CPO sample, and the A412(t10 − t0)solvent control is the change in the absorbance at A412nm between 0 and 10 min for the 0.2% ethanol sample.

[2] = tested on: CYP450; experiment: in vitro; type: in vitro ADME, rat; conditions: for Km: rat
Procedure: The in vitro incubations for investigating CYP450-mediated biotransformation of DZN were performed using rat and human liver microsomes based on the method described by Sams et al. ([2004]) and Smith et al. ([2011]) with some modifications. Preliminary studies were carried out to optimize both incubation time and microsomal protein concentration, to define conditions at which metabolism was linear with respect to time and the amount of microsomal protein (data not shown) to be used for further kinetic studies. The final incubations contained 50 mM Tris–HCl (pH 7.4), 5 mM MgCl2, 1 mM EDTA (as an A-esterase PON1 inhibitor) (Bizoń and Milnerowicz [2018]), 50 µM iso-OMPA (as a B-esterases inhibitor) (Lane et al. [2006]), 1 mM NADPH, and DZN at final concentrations of 1, 2.5, 5, 10, 25, 50, 100 and 250 µM (added from 100 times concentrated stock solutions in methanol). […] Addition of esterase inhibitors EDTA and iso-OMPA has been commonly applied when studying CYP450-mediated conversion of organophosphate (OP) pesticides in liver microsomal incubations for determining kinetic parameters for their CYP450-mediated pathways (Buratti et al. [2005]; Dadson et al. [2013]; Ellison et al. [2012]; Foxenberg et al. [2007]; Poet et al. [2003]; Smith et al. [2011]). Based on previous studies, CYP450-mediated activities are not adversely affected by the addition of these inhibitors (1 mM EDTA and 50 µM iso-OMPA) to the microsomal incubations (Buratti et al. [2003]; Rasmussen [2012]). After 1 min preincubation in a 37 °C water bath, 2.5 µl of human or rat liver microsomes (final concentration 0.25 mg microsomal protein/ml) were added to initiate the reaction. The total incubation mixture was 200 µl. Control incubations were carried out by replacing NADPH with buffer. The reaction was terminated after 2.5 min by adding 200 µl ice-cold ACN. After the incubation, samples were centrifuged at 16000 g (4℃) for 5 min, and supernatants of rat samples were further diluted 2 × in a mixture of ACN and 50 mM Tris–HCl (pH 7.4) (ratio 1:1, v/v). At the end, both diluted rat sample supernatants and undiluted human sample supernatants were analysed by LC–MS/MS for quantification of metabolite formation.
The chromatographic separations were conducted on a Kinetex® 1.7 µm Phenyl-Hexyl 100 Å LC column (100 × 2.1 mm). The injection volume was 1 µl at a flow rate of 0.3 ml/min. The temperature of the column was kept at 40℃. The mobile phase A consisted of ultrapure water with 0.1% (v/v) formic acid, and mobile phase B consisted of acetonitrile (ACN) with 0.1% (v/v) formic acid. […] The instrument was used in positive mode with multiple reaction monitoring (MRM). The optimized acquisition parameters for DZN, DZO and the metabolite IMHP are listed in Supplementary data I.
The calculation was done using GraphPad Prism 5 for Windows, version 5.04 (GraphPad software, San Diego California USA).

[3] = tested on: natural human RBC AChE; conditions: ref Fakhri-Bafghi et al. 2016; cited from earlier work
[4] = tested on: RBC AChE; conditions: ref USEPA 2016, cited from earlier work; for Reported BMDL10 from EPA (pups): RBC AChE inhibition in female rat pups (PND11)
[5] = human; ref Poklis et al. 1980; cited from earlier work
[6] = rat versus human liver microsomes

T1 sequence (P22303 32-614): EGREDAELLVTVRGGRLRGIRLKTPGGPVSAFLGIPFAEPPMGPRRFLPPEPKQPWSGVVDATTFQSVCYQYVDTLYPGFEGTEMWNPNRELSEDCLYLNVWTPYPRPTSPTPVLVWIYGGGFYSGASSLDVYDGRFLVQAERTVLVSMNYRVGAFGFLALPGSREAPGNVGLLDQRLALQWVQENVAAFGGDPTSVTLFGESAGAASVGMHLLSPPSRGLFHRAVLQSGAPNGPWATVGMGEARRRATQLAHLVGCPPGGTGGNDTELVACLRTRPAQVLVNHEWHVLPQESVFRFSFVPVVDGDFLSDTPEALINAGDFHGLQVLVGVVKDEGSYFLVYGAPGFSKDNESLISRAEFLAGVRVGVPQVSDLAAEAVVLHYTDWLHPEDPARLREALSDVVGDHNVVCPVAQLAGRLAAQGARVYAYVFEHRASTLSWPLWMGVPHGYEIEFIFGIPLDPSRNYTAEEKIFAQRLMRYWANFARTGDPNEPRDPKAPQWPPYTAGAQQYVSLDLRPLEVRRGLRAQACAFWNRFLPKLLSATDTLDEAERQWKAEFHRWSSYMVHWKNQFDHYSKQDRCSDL

Structure (SMILES): CCOP(=S)(OCC)Oc1cc(C)nc(C(C)C)n1 [DZN, O,O-diethyl O-2-isopropyl-6-methylpyrimidin-4-yl phosphorothioate]
- lower AChE inhibitory potency of DZN than of DZO [1]: around 300 fold
- pIC50 ([1]; rhAChE, 15 min incubation at 37℃, read-out: IC50 for inhibition of AChE activity): 4.85
- Vmax DZN to DZO ([2]; rat liver microsomes): 0.288 nmol/min/mg microsomal protein
- Vmax DZN to IMHP ([2]; rat liver microsomes): 1.098 nmol/min/mg microsomal protein
- CYP450-mediated detoxification, more efficient in rat compared to human [2, 6]: 15 fold
- lower Km for CYP450-mediated bioactivation in rat than in human [2, 6]: 12.6 fold
- lower Km for CYP450-mediated detoxification in rat than in human [2, 6]: 9.3 fold
- unscaled catalytic efficiency of CYP450-mediated bioactivation, higher in rat than human [2, 6]: 20 fold
- Km ([2]; pH 7.4, Km DZN to DZO, rat liver microsomes): 4.75 µM
- Km ([2]; pH 7.4, rat liver microsomes, read-out: Km DZN to IMHP): 1.76 µM
- pIC50 [3]: 4.61
- Reported BMDL10 from EPA (pups) [4]: 3 mg/kg bw
- Reported BMDL10 from EPA (pups) ([4]; listed as Diazinon): 3.0 mg/kg bw
- BMDL10 for inhibition of RBC AChE ([4]; male adult rats, oral DZN): 4.804 mg/kg bw/day
- Reported BMDL10 from EPA (adult rat) [4]: 4.8 mg/kg bw
- toxic dose level reported [5]: 293 mg/kg bw
